Activity calls are given as the source filed them. The calls are words filed in the database; no cut-off is given here.
Experiments:
Type in all cases: functional
[1] = Antioxidant activity assessed as potassium ferric cyanide ion reducing power at 50 to 100 ug after 20 mins
Metaphire posthuma [2] = experiment: Anthelmintic activity against Pheretima posthuma assessed as death time at 1 %
Metaphire posthuma [3] = experiment: Anthelmintic activity against Pheretima posthuma assessed as time taken for complete paralysis at 3 %
[4] = test system: Radical scavenging activity; experiment: Antioxidant activity assessed as DPPH free radical scavenging activity at 20 ug/4ml after 30 mins
[5] = Antioxidant activity assessed as ascorbic acid equivalent antioxidant capacity at 50 to 100 ug after 90 mins by phosphomolybdenum method
Metaphire posthuma [6] = experiment: Anthelmintic activity against Pheretima posthuma assessed as time taken for complete paralysis at 2 %
Metaphire posthuma [7] = experiment: Anthelmintic activity against Pheretima posthuma assessed as time taken for complete paralysis
Metaphire posthuma [8] = experiment: Anthelmintic activity against Pheretima posthuma assessed as death time at 3 %
Metaphire posthuma [9] = experiment: Anthelmintic activity against Pheretima posthuma assessed as time taken for complete paralysis at 1 %
Metaphire posthuma [10] = experiment: Anthelmintic activity against Pheretima posthuma assessed as death time at 2 %
Metaphire posthuma [11] = experiment: Anthelmintic activity against Pheretima posthuma assessed as death time

| SMILES | Activity [1] | Time (Metaphire posthuma [2]) [min] | Activity (Metaphire posthuma [3]) | Activity [4] [%] | Activity [5] | Time (Metaphire posthuma [6]) [min] | Activity (Metaphire posthuma [7]) | Time (Metaphire posthuma [8]) [min] | Time (Metaphire posthuma [9]) [min] | Time (Metaphire posthuma [10]) [min] | Time (Metaphire posthuma [11]) [min] |
| --- | --- | --- | --- | --- | --- | --- | --- | --- | --- | --- | --- |
| CCOC(=O)CSc1nnc2oc3c(Cl)cc(Cl)cc3n12 | Active | 6.13 | Dose-dependent effect | 65.7 | Active | 4 | Dose-dependent effect | 4.85 | 4.74 | 5.95 | 5.92 |
| O=[N+]([O-])c1ccc(NCn2nc3oc4c(Cl)cc(Cl)cc4n3c2=S)cc1 | Active | 8.33 | Dose-dependent effect | 18 | Active | 5.97 | Dose-dependent effect | 6.64 | 6.58 | 7.07 | 7.95 |
| CCCSc1ccc2[nH]c(NC(=O)OC)nc2c1 [ALBENDAZOLE] |  | 7.2 |  |  |  |  |  |  |  |  | 5.37 |
| Sc1nc2cc(Cl)cc(Cl)c2o1 | inactive | 9.05 | Dose-dependent effect | 32.1 |  | 3.2 | Dose-dependent effect | 5.95 | 7.27 | 7.83 | 8.22 |
| S=c1[nH]nc2oc3c(Cl)cc(Cl)cc3n12 | Active | 6.48 | Dose-dependent effect | 74.8 | Active | 3.82 | Dose-dependent effect | 4.12 | 4.29 | 5.49 | 5.48 |
| Cc1cc(C(C)(C)C)c(O)c(C(C)(C)C)c1 |  |  |  | 16.2 |  |  |  |  |  |  |  |
| CCOC(=O)CSc1nc2cc(Cl)cc(Cl)c2o1 | inactive | 7.23 | Dose-dependent effect | 9.49 |  | 5.28 | Dose-dependent effect | 5.75 | 5.87 | 6.37 | 6.61 |
| NNc1nc2cc(Cl)cc(Cl)c2o1 | Active | 4.77 | Dose-dependent effect | 81.5 | Active | 3.08 | Dose-dependent effect | 3.23 | 3.57 | 4.22 | 4.42 |

Source: ChEMBL document CHEMBL1795224, “Synthesis, in vitro antioxidant, anthelmintic and molecular docking studies of novel dichloro substituted benzoxazole-triazolo-thione derivatives” (2011)
